Test results: patent US11691949B2, “Quinoline sulfonamide compounds and their use as antibacterial agents” (OTAGO INNOVATION LIMITED, priority 2017, dated 2023)
In brackets after ≈: the same amount, converted by molar mass. Structures can show the parent of a compound that is named as a salt. Where two headings read alike, the source gives them in different places.

Tests used:
Assay type in all cases: cell-based
E. coli ATCC 10596 = assay: MIC by broth microdilution, E. coli; conditions: Escherichia coli
In short: (§1)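 Media: TSB or CAMHB for S. aureus, LB or CAMHB for E. coli, with zinc sulphate to 50 μM final where required. Cells at ~5×10^5 cfu/mL met two-fold compound series; growth was scored by OD600 after 24 h shaking at 37° C.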

S. uberis ATCC 19436 = assay: MIC by broth microdilution, S. uberis; conditions: Streptococcus uberis
In short: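 Streptococcus uberis ATCC 19436 was tested in Todd Hewitt Broth by broth microdilution in 96-well flat bottom plates, in biological triplicate. Overnight cells were diluted to OD600 of approximately 0.025, giving about 5×10^5 cfu/mL in the wells. Compounds were serially diluted two-fold to 200 μl, incubated 24 h at 37° C. and 200 rpm, and the MIC was taken from OD600.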

S. aureus ATCC 6538 = assay: MIC by broth microdilution, S. aureus; conditions: Staphylococcus aureus
In short: as §1

[1] = ATCC 10536 / ATCC 10596, No Zinc, read-out: E. coli ATCC 10536 MIC
[2] = ATCC 10536 / ATCC 10596, Zinc (50 μM), read-out: E. coli ATCC 10536 MIC
[3] = ATCC19436, No Zinc, read-out: S. uberis ATCC 19436 MIC
[4] = ATCC19436, Zinc (50 μM), read-out: S. uberis ATCC 19436 MIC
[5] = ATCC6538, No Zinc, read-out: S. aureus ATCC 6538 MIC
[6] = ATCC6538, Zinc (50 μM), read-out: S. aureus ATCC 6538 MIC

| MIC (E. coli ATCC 10596; [1]) [µg/mL] | MIC (E. coli ATCC 10596; [2]) [µg/mL] | MIC (S. uberis ATCC 19436; [3]) [µg/mL] | MIC (S. uberis ATCC 19436; [4]) [µg/mL] | MIC (S. aureus ATCC 6538; [5]) [µg/mL] | MIC (S. aureus ATCC 6538; [6]) [µg/mL] | SMILES | MIC (E. coli ATCC 10596; ATCC 10536 / ATCC 10596, read-out: E. coli ATCC 10536 MIC, No Zinc) [µg/mL] | MIC (E. coli ATCC 10596; ATCC 10536 / ATCC 10596, read-out: E. coli ATCC 10536 MIC, Zinc (50 μM)) [µg/mL] | MIC (S. uberis ATCC 19436; ATCC19436, read-out: S. uberis ATCC 19436 MIC, No Zinc) [µg/mL] | MIC (S. uberis ATCC 19436; ATCC19436, read-out: S. uberis ATCC 19436 MIC, Zinc (50 μM)) [µg/mL] | MIC (S. aureus ATCC 6538; ATCC6538, read-out: S. aureus ATCC 6538 MIC, No Zinc) [µg/mL] | MIC (S. aureus ATCC 6538; ATCC6538, read-out: S. aureus ATCC 6538 MIC, Zinc (50 μM)) [µg/mL] |
| --- | --- | --- | --- | --- | --- | --- | --- | --- | --- | --- | --- | --- |
| > 256 | > 256 | 128 (≈ 367 µM) | 0.25 (≈ 0.717 µM) | > 256 | > 256 | CN(C)Cc1ccc2cccc(NS(=O)(=O)N3CCCCC3)c2n1 [ZDR193, N-(2-((Dimethylamino)methyl)quinolin-8-yl)piperidine-1-sulfonamide] | – | – | – | – | – | – |
| 64 (≈ 168 µM) | 128 (≈ 336 µM) | 32 (≈ 83.9 µM) | 0.5 (≈ 1.31 µM) | 8 (≈ 21 µM) | 4 (≈ 10.5 µM) | NCc1ccc2cccc(NS(=O)(=O)c3ccc(C(F)(F)F)cc3)c2n1 [ZDR184, N-(2-(Aminomethyl)quinolin-8-yl)-4-(trifluoromethyl)benzenesulfonamide] | – | – | – | – | – | – |
| > 256 | > 256 | 128 (≈ 293 µM) | 0.25 (≈ 0.571 µM) | 32 (≈ 73.1 µM) | 64 (≈ 146 µM) | CC(C)(C)NCc1ccc2cccc(NS(=O)(=O)c3ccc(C(F)(F)F)cc3)c2n1 [ZDR135, N-(2-((tert-Butylamino)methyl)quinolin-8-yl)-4-(trifluoromethyl)benzenesulfonamide] | – | – | – | – | – | – |
| > 256 | > 256 | > 256 | 0.25 (≈ 0.401 µM) | > 256 | > 256 | CC(C)(C)OC(=O)N=C(NCc1ccc2cccc(NS(=O)(=O)c3ccc(C(F)(F)F)cc3)c2n1)NC(=O)OC(C)(C)C [ZDR186, N-(2-(N,N′-Bis-Boc-Guanidinomethyl)quinolin-8-yl)-4-(trifluoromethyl)benzenesulfonamide] | – | – | – | – | – | – |
| > 256 | > 256 | > 256 | 0.5 (≈ 1.38 µM) | > 256 | 256 (≈ 704 µM) | CN(C)Cc1ccc2cccc(NS(=O)(=O)CC3CCOCC3)c2n1 [ZDR504, N-(2-((Dimethylamino)methyl)quinolin-8-yl)-1-(tetrahydro-2H-pyran-4-yl)methanesulfonamide] | – | – | – | – | – | – |
| > 256 | > 256 | 256 (≈ 718 µM) | 16 (≈ 44.9 µM) | > 256 | > 256 | CN(C)Cc1ccc2cccc(NS(=O)(=O)c3cccc(N)c3)c2n1 [ZDR162, 3-Amino-N-(2-((dimethylamino)methyl)quinolin-8-yl)benzenesulfonamide] | – | – | – | – | – | – |
| 256 (≈ 585 µM) | > 256 | 16 (≈ 36.6 µM) | 0.125 (≈ 0.286 µM) | 32 (≈ 73.1 µM) | 128 (≈ 293 µM) | CCC(C)NCc1ccc2cccc(NS(=O)(=O)c3ccc(C(F)(F)F)cc3)c2n1 (stereo not drawn) [ZDR402, N-(2-((sec-Butylamino)methyl)quinolin-8-yl)-4-(trifluoromethyl)benzenesulfonamide] | – | – | – | – | – | – |
| > 256 | > 256 | 256 (≈ 681 µM) | 1 (≈ 2.66 µM) | > 256 | > 256 | CN(C)Cc1ccc2cccc(NS(=O)(=O)c3ccccc3Cl)c2n1 [ZDR190, 2-Chloro-N-(2-((dimethylamino)methyl)quinolin-8-yl)benzenesulfonamide] | – | – | – | – | – | – |

Continued, compound first:

| SMILES | MIC (E. coli ATCC 10596; [1]) [µg/mL] | MIC (E. coli ATCC 10596; [2]) [µg/mL] | MIC (S. uberis ATCC 19436; [3]) [µg/mL] | MIC (S. uberis ATCC 19436; [4]) [µg/mL] | MIC (S. aureus ATCC 6538; [5]) [µg/mL] | MIC (S. aureus ATCC 6538; [6]) [µg/mL] | MIC (E. coli ATCC 10596; ATCC 10536 / ATCC 10596, read-out: E. coli ATCC 10536 MIC, No Zinc) [µg/mL] | MIC (E. coli ATCC 10596; ATCC 10536 / ATCC 10596, read-out: E. coli ATCC 10536 MIC, Zinc (50 μM)) [µg/mL] | MIC (S. uberis ATCC 19436; ATCC19436, read-out: S. uberis ATCC 19436 MIC, No Zinc) [µg/mL] | MIC (S. uberis ATCC 19436; ATCC19436, read-out: S. uberis ATCC 19436 MIC, Zinc (50 μM)) [µg/mL] | MIC (S. aureus ATCC 6538; ATCC6538, read-out: S. aureus ATCC 6538 MIC, No Zinc) [µg/mL] | MIC (S. aureus ATCC 6538; ATCC6538, read-out: S. aureus ATCC 6538 MIC, Zinc (50 μM)) [µg/mL] |
| --- | --- | --- | --- | --- | --- | --- | --- | --- | --- | --- | --- | --- |
| CN(C)Cc1ccc2cccc(NS(=O)(=O)c3cccc(F)c3)c2n1 [ZDR312, N-(2-((Dimethylamino)methyl)quinolin-8-yl)-3-fluorobenzenesulfonamide] | > 256 | > 256 | 128 (≈ 356 µM) | 0.125 (≈ 0.348 µM) | 256 (≈ 712 µM) | 256 (≈ 712 µM) | – | – | – | – | – | – |
| CN(C)Cc1ccc2cccc(NS(=O)(=O)c3ccc(C=O)cc3)c2n1 [ZDR324, N-(2-((Dimethylamino)methyl)quinolin-8-yl)-4-formylbenzenesulfonamide] | > 256 | > 256 | 256 (≈ 693 µM) | 1 (≈ 2.71 µM) | 256 (≈ 693 µM) | 256 (≈ 693 µM) | – | – | – | – | – | – |
| CN(C)Cc1ccc2cccc(NS(=O)(=O)c3ccc(O)cc3)c2n1 [ZDR164, N-(2-((Dimethylamino)methyl)quinolin-8-yl)-4-hydroxybenzenesulfonamide] | > 256 | > 256 | > 256 | > 256 | > 256 | > 256 | – | – | – | – | – | – |
| CN(Cc1ccc2cccc(NS(=O)(=O)c3ccc(C(F)(F)F)cc3)c2n1)Cc1ccc2cccc(NS(=O)(=O)c3ccc(C(F)(F)F)cc3)c2n1 [ZDR037, N,N′-(((Methylazanediyl)bis(methylene))bis(quinoline-2,8-diyl))bis(4-(trifluoromethyl)benzenesulfonamide)] | > 256 | > 256 | > 256 | 2 (≈ 2.63 µM) | > 256 | > 256 | – | – | – | – | – | – |
| CN(C)Cc1ccc2cccc(NS(=O)(=O)C3CC3)c2n1 [ZDR323, N-(2-((Dimethylamino)methyl)quinolin-8-yl)cyclopropanesulfonamide] | > 256 | > 256 | > 256 | 1 (≈ 3.27 µM) | > 256 | 256 (≈ 838 µM) | – | – | – | – | – | – |
| O=S(=O)(Nc1cccc2ccc(CNc3ccccc3)nc12)c1ccc(C(F)(F)F)cc1 [ZDR108, N-(2-((Phenylamino)methyl)quinolin-8-yl)-4-(trifluoromethyl)benzenesulfonamide] | > 256 | > 256 | > 256 | 0.25 (≈ 0.546 µM) | 64 (≈ 140 µM) | > 256 | – | – | – | – | – | – |
| CN(C)CCCC(=O)NCc1ccc2cccc(NS(=O)(=O)c3ccc(C(F)(F)F)cc3)c2n1 [ZDR211, 4-(Dimethylamino)-N-((8-((4-(trifluoromethyl)phenyl)sulfonamido)quinolin-2-yl)methyl)butanamide trifluoroacetate] | – | – | – | – | – | – | 128 | 128 | 64 | 16 | 128 | 64 |
| CN(C)CCNCc1ccc2cccc(NS(=O)(=O)c3ccc(C(F)(F)F)cc3)c2n1 [ZDR030, N-(2-(((2-(Dimethylamino)ethyl)amino)methyl)quinolin-8-yl)-4-(trifluoromethyl)benzenesulfonamide] | 128 (≈ 283 µM) | ≥ 256 | 16 (≈ 35.4 µM) | 1 (≈ 2.21 µM) | 16 (≈ 35.4 µM) | 16 (≈ 35.4 µM) | – | – | – | – | – | – |
| CC(=O)c1ccc(S(=O)(=O)Nc2cccc3ccc(CN(C)C)nc23)cc1 [ZDR070, 4-Acetyl-N-(2-((dimethylamino)methyl)quinolin-8-yl)benzenesulfonamide] | > 256 | > 256 | > 256 | 0.5 (≈ 1.3 µM) | > 256 | > 256 | – | – | – | – | – | – |
| O=S(=O)(Nc1cccc2ccc(CN3CCSCC3)nc12)c1ccc(C(F)(F)F)cc1 [ZDR088, N-(2-(Thiomorpholinomethyl)quinolin-8-yl)-4-(trifluoromethyl)benzenesulfonamide] | > 256 | > 256 | > 256 | 0.0625 (≈ 0.134 µM) | > 256 | > 256 | – | – | – | – | – | – |
| CN(C)Cc1ccc2cccc(NS(=O)(=O)c3ccc([N+](=O)[O-])cc3)c2n1 [ZDR067, N-(2-((Dimethylamino)methyl)quinolin-8-yl)-4-nitrobenzenesulfonamide] | > 256 | > 256 | 128 (≈ 331 µM) | 0.125 (≈ 0.323 µM) | 128 (≈ 331 µM) | 256 (≈ 662 µM) | – | – | – | – | – | – |
| CN(C)Cc1ccc2cccc(NS(=O)(=O)c3ccccc3)c2n1 [ZDR061, N-(2-((Dimethylamino)methyl)quinolin-8-yl)benzenesulfonamide] | > 256 | > 256 | > 256 | 0.25 (≈ 0.732 µM) | > 256 | 256 (≈ 750 µM) | – | – | – | – | – | – |
| O=S(=O)(Nc1cccc2ccc(CNCc3ccco3)nc12)c1ccc(C(F)(F)F)cc1 [ZDR106, N-(2-(((Furan-2-ylmethyl)amino)methyl)quinolin-8-yl)-4-(trifluoromethyl)benzenesulfonamide] | > 256 | > 256 | 64 (≈ 139 µM) | 0.25 (≈ 0.542 µM) | > 256 | > 256 | – | – | – | – | – | – |
| CN(C)Cc1ccc2cccc(NS(=O)(=O)c3cccc(C(F)(F)F)c3)c2n1 [ZDR074, N-(2-((Dimethylamino)methyl)quinolin-8-yl)-3-(trifluoromethyl)benzenesulfonamide] | 256 (≈ 625 µM) | 256 (≈ 625 µM) | > 256 | 0.0625 (≈ 0.153 µM) | > 256 | > 256 | – | – | – | – | – | – |
| C#CCS(=O)(=O)Nc1cccc2ccc(CN(C)C)nc12 [ZDR506, N-(2-((Dimethylamino)methyl)quinolin-8-yl)prop-2-yne-1-sulfonamide] | > 256 | > 256 | 256 (≈ 844 µM) | 2 (≈ 6.59 µM) | > 256 | > 256 | – | – | – | – | – | – |
| O=S(=O)(Nc1cccc2ccc(CNCc3ccccn3)nc12)c1ccc(C(F)(F)F)cc1 [ZDR035, N-(2-((((Pyridin-2-yl)methyl)amino)methyl)quinolin-8-yl)-4-(trifluoromethyl)benzenesulfonamide] | 32 (≈ 67.7 µM) | > 256 | 2 (≈ 4.23 µM) | 1 (≈ 2.12 µM) | 4 (≈ 8.47 µM) | 4 (≈ 8.47 µM) | – | – | – | – | – | – |
